Measurements reported in patent publication US5223526A, “Pyrazole carboxanilide fungicides and use” (Monsanto Company, priority 1992, dated 1993).

Key:
succinate dehydrogenase = target: T1, succinate dehydrogenase (Botrytis cinerea, UniProt A0A384J5E4+A0A384J8V8+A0A384JHJ5); test: Enzyme inhibition: succinate dehydrogenase activity in Botrytis cinerea mitochondria (DCPIP reduction); type: biochemical; conditions: concentration required to inhibit the rate of DCPIP reduction by 50%; Botrytis cinerea isolate Nick mitochondria; read-out: I50 (μM conc.)
T1 construct: succinate-DCPIP reductase assay with KCN
T1 sequence (A0A384J5E4 1-300): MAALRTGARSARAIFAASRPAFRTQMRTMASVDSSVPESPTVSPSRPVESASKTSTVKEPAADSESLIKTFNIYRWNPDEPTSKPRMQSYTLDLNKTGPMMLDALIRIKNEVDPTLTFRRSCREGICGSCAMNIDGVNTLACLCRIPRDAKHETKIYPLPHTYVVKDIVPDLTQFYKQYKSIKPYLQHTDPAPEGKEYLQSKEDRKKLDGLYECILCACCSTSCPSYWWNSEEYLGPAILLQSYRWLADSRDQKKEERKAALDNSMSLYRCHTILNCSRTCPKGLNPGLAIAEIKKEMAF
T1 sequence (A0A384J8V8 1-189): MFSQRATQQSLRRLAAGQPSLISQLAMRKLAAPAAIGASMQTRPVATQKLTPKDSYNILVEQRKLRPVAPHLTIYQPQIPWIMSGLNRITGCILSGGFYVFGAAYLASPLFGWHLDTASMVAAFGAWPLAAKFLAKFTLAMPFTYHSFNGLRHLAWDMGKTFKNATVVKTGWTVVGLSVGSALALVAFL
T1 sequence (A0A384JHJ5 1-192): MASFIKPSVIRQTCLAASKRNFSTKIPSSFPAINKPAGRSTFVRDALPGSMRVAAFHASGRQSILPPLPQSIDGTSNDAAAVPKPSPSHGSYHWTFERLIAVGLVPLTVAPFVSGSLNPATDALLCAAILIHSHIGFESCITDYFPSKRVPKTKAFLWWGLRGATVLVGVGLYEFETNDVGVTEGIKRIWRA
T1 sequence (A0A384K456 1-647 partner): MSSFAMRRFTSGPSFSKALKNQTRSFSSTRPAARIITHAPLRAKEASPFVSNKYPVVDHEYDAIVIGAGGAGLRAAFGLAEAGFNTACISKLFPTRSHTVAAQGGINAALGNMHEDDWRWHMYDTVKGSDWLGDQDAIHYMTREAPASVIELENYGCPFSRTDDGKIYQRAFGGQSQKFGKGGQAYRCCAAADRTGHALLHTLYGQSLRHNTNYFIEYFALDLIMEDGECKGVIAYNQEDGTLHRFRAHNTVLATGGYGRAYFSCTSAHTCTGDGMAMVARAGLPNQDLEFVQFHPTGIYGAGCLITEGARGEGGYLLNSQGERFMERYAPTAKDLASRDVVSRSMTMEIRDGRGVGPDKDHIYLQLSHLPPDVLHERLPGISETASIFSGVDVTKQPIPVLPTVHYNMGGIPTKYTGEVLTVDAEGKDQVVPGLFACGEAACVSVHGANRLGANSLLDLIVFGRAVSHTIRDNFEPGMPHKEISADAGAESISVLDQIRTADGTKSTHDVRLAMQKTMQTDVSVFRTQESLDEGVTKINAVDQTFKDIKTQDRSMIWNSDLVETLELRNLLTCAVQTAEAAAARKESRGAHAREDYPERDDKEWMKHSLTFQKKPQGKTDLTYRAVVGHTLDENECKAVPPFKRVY
Method in brief: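 DCPIP (45 μM) reduction at 600 nm tracked with 17 mM succinate, 1 mM KCN and 50 mM potassium phosphate, pH 7.2. Compounds were added in acetone (final 1% v/v), and Botrytis cinerea isolate Nick mitochondrial fraction initiated the reaction. Rates minus endogenous activity gave percentage inhibition, plotted semilog against concentration to derive I50 (μM).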

Rhizoctonia solani = test: Rice sheath blight; type: in vivo; design: scale not given here; conditions: inoculated two days later, rated after 7 days, average of five plants; for Disease Control Rating at 0.02 mg/mL: foliage and soil sprayed with 0.02 mg/mL; for Disease Control Rating at 0.1 mg/mL: foliage and soil sprayed with 0.1 mg/mL; for Disease Control Rating at 0.5 mg/mL: foliage and soil sprayed with 0.5 mg/mL
Method in brief: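 Preventive test: R. solani inoculum on rice grain was applied at the plant base two days after spraying foliage and soil with Compound A (0.5, 0.1 or 0.02 mg/mL, water/acetone/Tween 20). Plants aged 11–15 days stood in flood trays; after 7 days at 25 °C and high humidity, disease control was rated against untreated plants, five plants averaged.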

Botrytis cinerea [1] = test: Eggplant grey mold; type: in vivo; design: scale not given here; conditions: inoculated 24 h later, rated after 3-4 days; for Disease Control Rating at 500 ppm: eggplant sprayed with 500 ppm; for Disease Control Rating at 20 ppm: eggplant sprayed with 20 ppm; for Disease Control Rating at 100 ppm: eggplant sprayed with 100 ppm
Method in brief: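 Protective test: compound formulations (2:3 acetone:water, 0.5% Tween 20; 500, 100 or 20 ppm) sprayed on 14-18-day-old plants, with spore inoculum (4×10^6 spore/mL) applied a day later. Disease control rated on Botrytis lesions after 3-4 days at 23 °C and 100% humidity.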

Botrytis cinerea [2] = test: Vine grey mold (grape berries); type: in vivo; conditions: average of six berries, 7-10 days; for pest or weed control at 50 ppm: grape berries treated with 50 ppm, read-out: % DISEASE CONTROL 50 ppm; for pest or weed control at 200 ppm: grape berries treated with 200 ppm, read-out: % DISEASE CONTROL 200 ppm
Method in brief: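 Preventive berry test: compound at 50 or 200 ppm (acetone/water, 0.05% Tween 20) applied one day before inoculation with 10^6 spores/mL Botrytis conidia. After 7-10 days at 20 °C under 12 h light, infected surface area rated; disease control expressed as percent reduction from control mean; repeated-test values averaged.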

Question: What does the source list for `Cn1cc(C(=O)Nc2ccccc2C2CCCCCC2)c(Cl)n1` [Example 51, 1H-pyrazole-4-carboxamide, 3-chloro-N-(2-cycloheptylphenyl)-1-methyl-]?
Answer: IC50 (succinate dehydrogenase): 0.023 µM; Disease Control Rating at 0.02 mg/mL (Rhizoctonia solani): 0; Disease Control Rating at 0.1 mg/mL (Rhizoctonia solani): 1; Disease Control Rating at 0.5 mg/mL (Rhizoctonia solani): 2; Disease Control Rating at 500 ppm (Botrytis cinerea [1]): 0; pest or weed control at 50 ppm (Botrytis cinerea [2]): 16%; pest or weed control at 200 ppm (Botrytis cinerea [2]): 27%

Question: With `Cc1nn(C)cc1C(=O)Nc1ccccc1[C@@H]1C[C@H]2CC[C@@H]1C2` (relative stereo) [Example 71, 1H-pyrazole-4-carboxamide, N-(2-bicyclo[2.2.1]hept-2-ylphenyl)-1,3-dimethyl-, exo-] as the molecule, how does the IC50 (succinate dehydrogenase) read?
Answer: Its IC50 is 0.046 µM.

Question: What about the “Disease Control Rating at 0.02 mg/mL” value (Rhizoctonia solani) of the same molecule?
Answer: The value was 1.

Question: What about the “Disease Control Rating at 0.1 mg/mL” value (Rhizoctonia solani) of the same molecule?
Answer: The value was 3.

Question: And the “Disease Control Rating at 0.5 mg/mL” value (Rhizoctonia solani)?
Answer: Its value is 3.

Question: What about the “Disease Control Rating at 500 ppm” value (Botrytis cinerea [1]) of the same molecule?
Answer: The value was 0.

Question: And the pest or weed control at 50 ppm (Botrytis cinerea [2])?
Answer: The pest or weed control at 50 ppm was 25%.

Question: What about the pest or weed control at 200 ppm (Botrytis cinerea [2]) of the same molecule?
Answer: The pest or weed control at 200 ppm was 57%.

Question: `Cn1cc(C(=O)Nc2ccccc2C2CCCCCC2)c(I)n1` [Example 57, 1H-pyrazole-4-carboxamide, N-[2-(cycloheptyl)phenyl]-3-iodo-1-methyl-] was tested. Which IC50 (succinate dehydrogenase) did it give?
Answer: Its IC50 is 0.0047 µM.

Question: What about the “Disease Control Rating at 0.5 mg/mL” value (Rhizoctonia solani) of the same molecule?
Answer: Its value is 0.

Question: And the “Disease Control Rating at 500 ppm” value (Botrytis cinerea [1])?
Answer: Its value is 0.

Question: What about the pest or weed control at 50 ppm (Botrytis cinerea [2]) of the same molecule?
Answer: The pest or weed control at 50 ppm was 53%.

Question: And the pest or weed control at 200 ppm (Botrytis cinerea [2])?
Answer: Its pest or weed control at 200 ppm is 72%.

Question: What does the source list for `Cn1cc(C(=O)Nc2ccccc2C=C2CCCC2)c(C(F)F)n1` [Example 118, 1H-pyrazole-4-carboxamide, N-[2-(cyclopentylidenemethyl)phenyl]3-(difluoromethyl)-1-methyl-]?
Answer: IC50 (succinate dehydrogenase): 0.029 µM; Disease Control Rating at 0.5 mg/mL (Rhizoctonia solani): 1; Disease Control Rating at 500 ppm (Botrytis cinerea [1]): 0; pest or weed control at 50 ppm (Botrytis cinerea [2]): 37%; pest or weed control at 200 ppm (Botrytis cinerea [2]): 87%

Question: Which IC50 (succinate dehydrogenase) does the source give for `COc1cccc(NC(=O)c2cn(C)nc2C(F)(F)F)c1C1CCCCCCC1` [Example 37, 1H-pyrazole-4-carboxamide, N-(2-cyclooctyl-3-methoxyphenyl)-1-methyl-3-(trifluoromethyl)-] here?
Answer: The IC50 was 0.0048 µM.

Question: What about the “Disease Control Rating at 0.02 mg/mL” value (Rhizoctonia solani) of the same molecule?
Answer: The value was 3.

Question: What about the “Disease Control Rating at 0.1 mg/mL” value (Rhizoctonia solani) of the same molecule?
Answer: Its value is 3.

Question: And the “Disease Control Rating at 0.5 mg/mL” value (Rhizoctonia solani)?
Answer: Its value is 3.

Question: And the “Disease Control Rating at 20 ppm” value (Botrytis cinerea [1])?
Answer: The value was 0.

Question: And the “Disease Control Rating at 100 ppm” value (Botrytis cinerea [1])?
Answer: Its value is 0.

Question: What about the “Disease Control Rating at 500 ppm” value (Botrytis cinerea [1]) of the same molecule?
Answer: The value was 2.

Question: What about the pest or weed control at 50 ppm (Botrytis cinerea [2]) of the same molecule?
Answer: Its pest or weed control at 50 ppm is 25%.

Question: What about the pest or weed control at 200 ppm (Botrytis cinerea [2]) of the same molecule?
Answer: The pest or weed control at 200 ppm was 54%.

Question: `Cn1cc(C(=O)Nc2cccc(F)c2C2CCCCC2)c(C(F)F)n1` [Example 17, 1H-pyrazole-4-carboxamide, N-(2-cyclohexyl-3-fluorophenyl)-3-(difluoromethyl)-1-methyl-] was tested. Which IC50 (succinate dehydrogenase) did it give?
Answer: Its IC50 is 0.0063 µM.

Question: What about the “Disease Control Rating at 0.5 mg/mL” value (Rhizoctonia solani) of the same molecule?
Answer: The value was 3.

Question: And the “Disease Control Rating at 20 ppm” value (Botrytis cinerea [1])?
Answer: The value was 1.

Question: What about the “Disease Control Rating at 100 ppm” value (Botrytis cinerea [1]) of the same molecule?
Answer: The value was 2.

Question: And the “Disease Control Rating at 500 ppm” value (Botrytis cinerea [1])?
Answer: The value was 2.

Question: And the pest or weed control at 50 ppm (Botrytis cinerea [2])?
Answer: Its pest or weed control at 50 ppm is 90%.

Question: What about the pest or weed control at 200 ppm (Botrytis cinerea [2]) of the same molecule?
Answer: Its pest or weed control at 200 ppm is 95%.

Question: With `Cn1cc(C(=O)Nc2ccccc2C2CCCC2)c(Br)n1` [Example 64, 1H-pyrazole-4-carboxamide, 3-bromo-N-(2-cyclopentylphenyl)-1-methyl-] as the molecule, how does the IC50 (succinate dehydrogenase) read?
Answer: Its IC50 is 0.047 µM.

Question: What about the “Disease Control Rating at 0.02 mg/mL” value (Rhizoctonia solani) of the same molecule?
Answer: The value was 1.

Question: What about the “Disease Control Rating at 0.1 mg/mL” value (Rhizoctonia solani) of the same molecule?
Answer: The value was 3.

Question: What about the “Disease Control Rating at 0.5 mg/mL” value (Rhizoctonia solani) of the same molecule?
Answer: Its value is 3.

Question: What about the “Disease Control Rating at 20 ppm” value (Botrytis cinerea [1]) of the same molecule?
Answer: Its value is 1.

Question: What about the “Disease Control Rating at 100 ppm” value (Botrytis cinerea [1]) of the same molecule?
Answer: The value was 1.

Question: And the “Disease Control Rating at 500 ppm” value (Botrytis cinerea [1])?
Answer: The value was 2.

Question: And the pest or weed control at 50 ppm (Botrytis cinerea [2])?
Answer: Its pest or weed control at 50 ppm is 10%.

Question: What about the pest or weed control at 200 ppm (Botrytis cinerea [2]) of the same molecule?
Answer: The pest or weed control at 200 ppm was 28%.
